# Source: paper PMC12157126, “Saturation kinetics and specificity of transporters for L-arginine and asymmetric dimethylarginine (ADMA) at the blood-brain and blood-CSF barriers” (PLOS One, 2025)
# Tests used:
# [1] = test system: blood-brain and blood-CSF barriers; assay: In situ brain/choroid plexus perfusion with capillary depletion: CNS uptake of [3H]-arginine in absence and presence of transporter inhibitors; format: in vivo, adult male BALB/c mice
# Method: (§1) The in situ brain/choroid plexus perfusion method was performed as previously described and will only be briefly detailed here. […] At the end of the perfusion period a CSF sample was taken from the cisterna magna, the animal was decapitated, the brain removed and samples taken under a Leica S4E L2 stereomicroscope (Leica; Buckinghamshire, UK). […] The circumventricular organs (CVOs) including the choroid plexus, pituitary gland and pineal gland were also sampled. Brain samples were also taken for capillary depletion analysis.
# (§2) Both the physiological capillary depletion buffer and dextran solution were maintained at 4 °C to halt any cell metabolism and transport processes, and to reduce any cellular or protein damage due to heat generated from the homogenisation process. The whole brain homogenate was then taken for dextran density centrifugation (5,400 x g) and 4 °C to produce an endothelial cell-enriched pellet and supernatant containing brain parenchyma.
# (§3) The transporter proteins these inhibitors target are listed in S1 Table in S1 File.
# (§4) % change=RTissue−RInhibition /RTissue× 100 (2)
# [2] = test system: blood-brain and blood-CSF barriers; assay: In situ brain/choroid plexus perfusion with capillary depletion: CNS uptake of [3H]-ADMA in absence and presence of transporter inhibitors; details: for RBrain of [3H]-ADMA in presence of inhibitor: 10 min, sucrose corrected; for RBrain of [3H]-ADMA in presence of inhibitor / % inhibition of [3H]-ADMA uptake: L-homoarginine 20 mM
# Method: as §1, §2, §3, §4
# [3] = caudate nucleus, BCH 4 mM, α-methyl-D,L-tryptophan 500 μM, L-phenylalanine 200 μM, L-leucine 5 mM, harmaline 2 mM
# [4] = frontal cortex, BCH 4 mM, α-methyl-D,L-tryptophan 500 μM, L-phenylalanine 200 μM, L-leucine 5 mM, harmaline 2 mM
# [5] = hippocampus, BCH 4 mM, α-methyl-D,L-tryptophan 500 μM, L-phenylalanine 200 μM, L-leucine 5 mM, harmaline 2 mM
# [6] = hypothalamus, BCH 4 mM, α-methyl-D,L-tryptophan 500 μM, L-phenylalanine 200 μM, L-leucine 5 mM, harmaline 2 mM
# [7] = occipital cortex, BCH 4 mM, α-methyl-D,L-tryptophan 500 μM, L-phenylalanine 200 μM, L-leucine 5 mM, harmaline 2 mM
# [8] = pineal gland, BCH 4 mM, α-methyl-D,L-tryptophan 500 μM, L-phenylalanine 200 μM, L-leucine 5 mM, harmaline 2 mM
# [9] = thalamus, BCH 4 mM, α-methyl-D,L-tryptophan 500 μM, L-phenylalanine 200 μM, L-leucine 5 mM, harmaline 2 mM
smiles,measurement,setting,value
"NC(N)=NCCCC[C@H](N)C(=O)O [L-homoarginine, reference compound]",inhibition of [3H]-arginine uptake,"[1]; 20 mM L-homoarginine, all brain regions (up to), 10 min",up to 99.7%
same,inhibition of [3H]-arginine distribution,"[1]; 20 mM L-homoarginine, choroid plexus",99.8%
same,reduced uptake of [3H]-arginine,"[1]; 20 mM L-homoarginine, hypothalamus, did not attain statistical significance",98.0%
same,inhibition of [3H]-arginine distribution,"[1]; 20 mM L-homoarginine, pituitary gland",97.6%
same,decrease in [3H]-arginine distribution,"[1]; L-homoarginine, CSF, failed to attain statistical significance (n=3)",88.4%
same,inhibition of [3H]-ADMA uptake,"[2]; 20 mM L-homoarginine, all brain regions (up to)",up to 99.2%
same,RBrain of [3H]-ADMA in presence of inhibitor,"[2]; CSF, BCH 4 mM, α-methyl-D,L-tryptophan 500 μM, L-phenylalanine 200 μM, L-leucine 5 mM, harmaline 2 mM",2.45±0.52 ml.100g^-1
same,RBrain of [3H]-ADMA in presence of inhibitor,[2]; [3],0.18±0.13 ml.100g^-1
same,% inhibition of [3H]-ADMA uptake,[2]; [3],99.2%
same,RBrain of [3H]-ADMA in presence of inhibitor,"[2]; cerebellum, BCH 4 mM, α-methyl-D,L-tryptophan 500 μM, L-phenylalanine 200 μM, L-leucine 5 mM, harmaline 2 mM",0.37±0.19 ml.100g^-1
same,% inhibition of [3H]-ADMA uptake,[2]; cerebellum,97.9%
same,RBrain of [3H]-ADMA in presence of inhibitor,"[2]; choroid plexus, BCH 4 mM, α-methyl-D,L-tryptophan 500 μM, L-phenylalanine 200 μM, L-leucine 5 mM, harmaline 2 mM",30.73±22.20 ml.100g^-1
same,% inhibition of [3H]-ADMA uptake,"[2]; choroid plexus, BCH 4 mM, L-phenylalanine 200 μM, L-leucine 5 mM, harmaline 2 mM",88.2%
same,RBrain of [3H]-ADMA in presence of inhibitor,[2]; [4],1.06±1.02 ml.100g^-1
same,% inhibition of [3H]-ADMA uptake,[2]; [4],95.7%
same,RBrain of [3H]-ADMA in presence of inhibitor,[2]; [5],0.20±0.13 ml.100g^-1
same,% inhibition of [3H]-ADMA uptake,[2]; [5],99.1%
same,RBrain of [3H]-ADMA in presence of inhibitor,"[2]; homogenate, BCH 4 mM, α-methyl-D,L-tryptophan 500 μM, L-phenylalanine 200 μM, L-leucine 5 mM, harmaline 2 mM",3.74±3.52 ml.100g^-1
same,RBrain of [3H]-ADMA in presence of inhibitor,[2]; [6],1.54±1.12 ml.100g^-1
same,% inhibition of [3H]-ADMA uptake,[2]; [6],94.9%
same,RBrain of [3H]-ADMA in presence of inhibitor,[2]; [7],0.49±0.40 ml.100g^-1
same,% inhibition of [3H]-ADMA uptake,[2]; [7],97.8%
same,RBrain of [3H]-ADMA in presence of inhibitor,"[2]; pellet, BCH 4 mM, α-methyl-D,L-tryptophan 500 μM, L-phenylalanine 200 μM, L-leucine 5 mM, harmaline 2 mM",2.32±1.65 ml.100g^-1
same,RBrain of [3H]-ADMA in presence of inhibitor,[2]; [8],12.43±6.87 ml.100g^-1
same,% inhibition of [3H]-ADMA uptake,[2]; [8],93.6%
same,RBrain of [3H]-ADMA in presence of inhibitor,"[2]; pituitary gland, BCH 4 mM, α-methyl-D,L-tryptophan 500 μM, L-phenylalanine 200 μM, L-leucine 5 mM, harmaline 2 mM",8.57±3.99 ml.100g^-1
same,% inhibition of [3H]-ADMA uptake,"[2]; pituitary gland, BCH 4 mM, L-phenylalanine 200 μM, L-leucine 5 mM, harmaline 2 mM",95.3%
same,RBrain of [3H]-ADMA in presence of inhibitor,"[2]; pons, BCH 4 mM, α-methyl-D,L-tryptophan 500 μM, L-phenylalanine 200 μM, L-leucine 5 mM, harmaline 2 mM",2.36±1.06 ml.100g^-1
same,% inhibition of [3H]-ADMA uptake,[2]; pons,90.4%
same,% inhibition of [3H]-ADMA uptake,[2]; supernatant (brain parenchyma),65.8%
same,RBrain of [3H]-ADMA in presence of inhibitor,"[2]; supernatant, BCH 4 mM, α-methyl-D,L-tryptophan 500 μM, L-phenylalanine 200 μM, L-leucine 5 mM, harmaline 2 mM",3.43±1.95 ml.100g^-1
same,RBrain of [3H]-ADMA in presence of inhibitor,[2]; [9],1.81±0.71 ml.100g^-1
same,% inhibition of [3H]-ADMA uptake,[2]; [9],91.4%
same,% inhibition of [3H]-ADMA uptake,"[2]; whole brain homogenate, L-phenylalanine 200 μM, L-leucine 5 mM",78.9%
